Literature values as cited in patent US7923465B2, “Cannabinoid receptor ligands, pharmaceutical compositions containing them, and process for their preparation” (priority 2005, dated 2011).
Read-outs that look alike come from different tables or passages of the source.

Key:
voluntary ethanol intake [1] = settings: rats; cited from earlier work
voluntary ethanol intake [2] = settings: mice; cited from earlier work

Compound: Cc1c(C(=O)NN2CCCCC2)nn(-c2ccc(Cl)cc2Cl)c1-c1ccc(Cl)cc1 [SR-141716A, 5-(4-chlorophenyl)-1-(2,4-dichlorophenyl)-4-methyl-N-(1-piperidyl)pyrazole-3-carboxamide]
- voluntary ethanol intake (voluntary ethanol intake [1]): block voluntary ethanol intake
- voluntary ethanol intake (voluntary ethanol intake [2]): block voluntary ethanol intake
